Assay results reported in US11230526B1, “Cylcoalkenyl derivatives useful as agonists of the GPR120 and/or GPR40 receptors” (Janssen Pharmaceutica NV, priority 2018, dated 2022).

Legend:
[1] = biological target: T1, long form of human GPR120 (Homo sapiens, UniProt Q5NUL3); assay: Human GPR120 DiscoveRx PathHunter Beta-Arrestin assay, Procedure β-arrestin A; type: cell-based
T1 construct: host or cells: PathHunter CHO-K1 GPR120 β-Arrestin Cell Line
From the text: Human GPR120 DiscoveRx PathHunter® Beta-Arrestin Assay Assay Principle:
The binding of an agonist (medium/long chain fatty acids or small molecule agonists) to the G-protein-coupled receptor GPR120 activates phospholipase C, leading to release of intracellular Ca^+2 through the generation of inositol 1,4,5-trisphosphate (InsP3 or IP3). GPR120 activation can also trigger intracellular signaling via recruitment of Beta-Arrestin. In the present method, agonist-induced activation of the human GPR120 receptor is monitored through the use of PathHunter® CHO-K1 GPR120 Beta-Arrestin Cell Line engineered by DiscoveRx, as detailed below. The cell lines are designed to co-express both the ProLink/Enzyme Donor (PK)-tagged GPCR and the Enzyme […] (EA)-tagged Beta-Arrestin fusion proteins. Upon GPR120 receptor stimulation/activation, the EA-tagged Beta-Arrestin portion is translocated to the tagged receptor, where the two enzyme fragments are brought within close proximity. Under these conditions, these fragments can interact and form an active Beta-gal enzyme complex through Enzyme Fragment Complementation (EFC). This active Beta-gal complex can enzymatically hydrolyse the substrate to produce a detectable light signal; therefore, activation as a function of agonist concentration can be expressed as an EC50 value to determine relative compound activities. This in vitro assay therefore serves to assess compound agonist activity of the GPR120.
In Procedure β-arrestin A, the cell used were PathHunter® CHO-K1 GPR120 β-Arrestin Cell Line, expressing the long form of human GPR120 (Genbank accession number NM_181745), with 3000 cells per well.
The selected CHO-K1 GPR120 β-Arrestin cells were cultured in Ham's F12 media supplemented with 10% fetal bovine serum (FBS), 1% Glutamine, 1×p/s, 800 μg/mL G418 and 300 μg/mL Hygromycin B (for selection). Cell stocks were maintained and grown in a sub-confluent state using standard cell culture procedures. The day before the experiment, the cells were harvested with non-enzymatic cell dissociation buffer and re-suspended in complete growth media at the desired concentration. A Corning 384-plate was then seeded with the proper number of cells in a volume of 25 μL, per well. The seeded plates were incubated overnight at 37° C.
On the day of the experiment, the Assay Buffer containing (a) HBSS with Ca^++ and Mg^++, (b) 20 mM HEPES, and (c) 0.1% BSA stabilizer (pH 7.4) was prepared. The growth medium was gently removed from the cell plates and 20 μL of Assay Buffer added to each well. The plate was then incubated at 37° C. for 60 min. Test compounds were serially diluted in Assay Buffer to desired concentrations (more particularly to one or more of the following μM concentrations: 25, 12.5, 6.25, 3.12, 1.56, 0.78, 0.39, 0.19, 0.10, 0.05, 0.02, 0.01). Five μL of compound dilution was then added to each well and the plate incubated at 37° C. for 90 min. The detection reagents were prepared according to the manufacture's instruction. Twelve μL of the detection reagents were added to each well and the plate incubated at room temperature for 60 min.
The plates were read on an EnVision instrument, using Protocol name: Luminescence, Plate type: 384 Costar, Measurement height: 3 mm, Measurement time: 1 s, Aperture: 384 Plate aperture. The % Activity relative to the positive control was calculated using the following equation:
The % Activity values were plotted versus the concentration of test compound and fitted to a sigmoidal dose-response curve with a Hill slope=1 (fixed value) using nonlinear regression with GraphPad Prism 5.0 to calculate the EC50 values. The Fitting Equation was: Y=Bottom+(Top-Bottom)/(1+10^((Log EC50−X)*HillSlope)), where X is the log of the concentration and Y is the response.

Human GPR120 short form = biological target: T2, Human GPR120 short form (Homo sapiens, UniProt Q5NUL3); assay: Human GPR120 calcium flux assay, Procedure Calcium B (4200 cells/well); type: cell-based
T2 construct: expressed in transfected cells
T2 sequence (Q5NUL3 1-361): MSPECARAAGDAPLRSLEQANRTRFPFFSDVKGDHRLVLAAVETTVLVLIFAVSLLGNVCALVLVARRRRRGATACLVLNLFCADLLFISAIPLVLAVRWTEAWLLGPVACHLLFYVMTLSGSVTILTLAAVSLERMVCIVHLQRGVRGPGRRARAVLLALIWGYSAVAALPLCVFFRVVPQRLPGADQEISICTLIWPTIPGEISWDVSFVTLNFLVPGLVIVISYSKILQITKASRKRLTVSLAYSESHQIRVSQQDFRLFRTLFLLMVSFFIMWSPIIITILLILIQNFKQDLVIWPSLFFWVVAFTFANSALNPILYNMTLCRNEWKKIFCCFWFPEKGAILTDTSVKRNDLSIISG
Summary of the method: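 HEK293 cells stably expressing human GPR120 (NM_001195755.1), 4200 cells/well, starved 1 h and loaded with Fluo-4 NW plus probenecid. Ligand-evoked calcium flux read on FLIPR for 300 s after a 10 s baseline. RFU = Fmax−Fmin; EC50 from four-parameter concentration-response fit.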

T1 sequence (Q5NUL3 1-377 isoform Q5NUL3-1): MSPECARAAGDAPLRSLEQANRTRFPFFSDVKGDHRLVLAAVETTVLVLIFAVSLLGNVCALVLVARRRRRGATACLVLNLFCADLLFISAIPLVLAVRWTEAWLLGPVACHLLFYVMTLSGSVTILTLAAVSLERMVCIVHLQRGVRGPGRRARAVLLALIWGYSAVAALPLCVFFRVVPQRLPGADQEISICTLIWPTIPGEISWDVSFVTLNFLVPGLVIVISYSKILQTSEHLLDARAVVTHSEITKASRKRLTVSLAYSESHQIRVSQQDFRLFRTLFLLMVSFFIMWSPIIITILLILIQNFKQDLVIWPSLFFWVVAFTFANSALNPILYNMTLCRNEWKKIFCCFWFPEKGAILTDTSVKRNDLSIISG
T1 sequence (P32121 whole entry partner): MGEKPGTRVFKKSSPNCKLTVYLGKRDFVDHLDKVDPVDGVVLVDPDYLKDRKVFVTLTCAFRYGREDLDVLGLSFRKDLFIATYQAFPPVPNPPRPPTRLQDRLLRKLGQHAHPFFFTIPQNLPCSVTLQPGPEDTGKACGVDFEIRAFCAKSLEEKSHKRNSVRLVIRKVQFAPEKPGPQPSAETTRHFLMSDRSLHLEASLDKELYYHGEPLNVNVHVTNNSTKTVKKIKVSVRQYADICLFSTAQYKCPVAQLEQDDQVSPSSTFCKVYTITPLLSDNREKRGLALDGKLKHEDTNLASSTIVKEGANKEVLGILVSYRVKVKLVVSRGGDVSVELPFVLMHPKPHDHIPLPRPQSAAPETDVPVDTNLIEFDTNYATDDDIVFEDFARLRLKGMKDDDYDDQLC

| EC50 [1] [nM] | EC50 (Human GPR120 short form) [nM] | Structure (SMILES) |
| --- | --- | --- |
| 35 | 49 | Cc1ccc(C2=C(COc3ccc(CCC(=O)O)cc3Br)CCC2)cc1 [Compound 169, 3-[3-bromo-4-[[2-(p-tolyl)cyclopenten-1-yl]methoxy]phenyl]Propanoic Acid] |
| 211 | 106 | Cc1c(CCC(=O)O)ccc(OCC2=C(c3ccc(Cl)c(F)c3)CC(F)(F)C2)c1C [Compound 171, 3-[4-[[2-(4-chloro-3-fluoro-phenyl)-4,4-difluoro-cyclopenten-1-yl]methoxy]-2,3-dimethyl-phenyl]Propanoic Acid] |
| 73 | 53 | Cc1c(CCC(=O)O)ccc(OCC2=C(c3ccc(F)c(F)c3)CC(F)(F)C2)c1C [Compound 177, 3-[4-[[2-(3,4-difluorophenyl)-4,4-difluoro-cyclopenten-1-yl]methoxy]-2,3-dimethyl-phenyl]Propanoic Acid] |
| 245 | 63 | COC1CC(COc2ccc(CCC(=O)O)c(C)c2C)=C(c2ccc(Cl)cc2)C1 (stereo not shown) [Compound 189, 3-[4-[[2-(4-chlorophenyl)-4-methoxy-cyclopenten-1-yl]methoxy]-2,3-dimethyl-phenyl]Propanoic Acid] |
| 1050 | 442 | Cc1cc(CCC(=O)O)ccc1OCC1=C(c2cncs2)CC(F)(F)C1 [Compound 190, 3-[4-[(4,4-difluoro-2-thiazol-5-yl-cyclopenten-1-yl)methoxy]-3-methyl-phenyl]Propanoic Acid] |
| 320 | 62 | Cc1c(CCC(=O)O)ccc(OCC2=C(c3cccc(F)c3)CC(F)(F)C2)c1C [Compound 192, 3-[4-[[4,4-difluoro-2-(3-fluorophenyl)cyclopenten-1-yl]methoxy]-2,3-dimethyl-phenyl]Propanoic Acid] |
| 161 | 36 | Cc1c(CCC(=O)O)ccc(OCC2=C(c3ccccc3)CC(F)(F)C2)c1C [Compound 194, 3-[4-[(4,4-difluoro-2-phenyl-cyclopenten-1-yl)methoxy]-2,3-dimethyl-phenyl]Propanoic Acid] |
| 466 | 228 | Cc1c(CCC(=O)O)ccc(OCC2=C(c3ccc(Cl)cc3)CC(Cl)C2)c1C (stereo not shown) [Compound 195, 3-[4-[[4-chloro-2-(4-chlorophenyl)cyclopenten-1-yl]methoxy]-2,3-dimethyl-phenyl]Propanoic Acid] |
| 996 | 743 | Cc1c(CCC(=O)O)ccc(OCC2=C(c3ccc(Cl)cc3)CC(C#N)C2)c1C (stereo not shown) [Compound 196, 3-[4-[[2-(4-chlorophenyl)-4-cyano-cyclopenten-1-yl]methoxy]-2,3-dimethyl-phenyl]Propanoic Acid] |
| 435 | 184 | Cc1c(CCC(=O)O)ccc(OCC2=C(c3cccs3)CC(F)(F)C2)c1C [Compound 200, 3-[4-[[4,4-difluoro-2-(2-thienyl)cyclopenten-1-yl]methoxy]-2,3-dimethyl-phenyl]Propanoic Acid] |
| 408 | 792 | O=C(O)CCc1cc(F)c(OCC2=C(c3cccs3)CC(F)(F)C2)c(F)c1 [Compound 201, 3-[4-[[4,4-difluoro-2-(2-thienyl)cyclopenten-1-yl]methoxy]-3,5-difluoro-phenyl]Propanoic Acid] |
| 303 | 114 | Cc1cc(CCC(=O)O)ccc1OCC1=C(c2cccs2)CC(F)(F)C1 [Compound 202, 3-[4-[[4,4-difluoro-2-(2-thienyl)cyclopenten-1-yl]methoxy]-3-methyl-phenyl]Propanoic Acid] |
| 3840 | 873 | Cc1c(CCC(=O)O)ccc(OCC2=C(c3ccc(Cl)c(F)c3)CCC(F)(F)C2)c1C [Compound 526, 3-[4-[[2-(4-chloro-3-fluoro-phenyl)-5,5-difluoro-cyclohexen-1-yl]methoxy]-2,3-dimethyl-phenyl]Propanoic Acid] |
| 498 | 885 | Cc1cc(CCC(=O)O)ccc1OCC1=C(c2ccc(Cl)c(F)c2)CCC(F)(F)C1 [Compound 527, 3-[4-[[2-(4-chloro-3-fluoro-phenyl)-5,5-difluoro-cyclohexen-1-yl]methoxy]-3-methyl-phenyl]Propanoic Acid] |
| 287 | 117 | Cc1c(CCC(=O)O)ccc(OCC2=C(c3ccc(F)c(F)c3)CCC(F)(F)C2)c1C [Compound 531, 3-[4-[[2-(3,4-difluorophenyl)-5,5-difluoro-cyclohexen-1-yl]methoxy]-2,3-dimethyl-phenyl]Propanoic Acid] |
| 159 | 89 | Cc1cc(CCC(=O)O)ccc1OCC1=C(c2ccccc2)CCC(F)(F)C1 [Compound 538, 3-[4-[(5,5-difluoro-2-phenyl-cyclohexen-1-yl)methoxy]-3-methyl-phenyl]Propanoic Acid] |
| 222 | 151 | COC1CCC(c2ccc(Cl)cc2)=C(COc2ccc(CCC(=O)O)c(C)c2C)C1 (stereo not shown) [Compound 540, 3-[4-[[2-(4-chlorophenyl)-5-methoxy-cyclohexen-1-yl]methoxy]-2,3-dimethyl-phenyl]Propanoic Acid] |
| 1660 | 977 | Cc1c(CCC(=O)O)ccc(OCC2=C(c3cnn(C)c3)CCC(F)(F)C2)c1C [Compound 545, 3-[4-[[5,5-difluoro-2-(1-methylpyrazol-4-yl)cyclohexen-1-yl]methoxy]-2,3-dimethyl-phenyl]Propanoic Acid] |
| 1800 | 388 | Cc1c(CCC(=O)O)ccc(OCC2=C(c3cncs3)CCC(F)(F)C2)c1C [Compound 547, 3-[4-[(5,5-difluoro-2-thiazol-5-yl-cyclohexen-1-yl)methoxy]-2,3-dimethyl-phenyl]Propanoic Acid] |
| 476 | 155 | Cc1c(CCC(=O)O)ccc(OCC2=C(c3ccco3)CCC(F)(F)C2)c1C [Compound 552, 3-[4-[[5,5-difluoro-2-(2-furyl)cyclohexen-1-yl]methoxy]-2,3-dimethyl-phenyl]Propanoic Acid] |
| 1020 | 727 | Cc1ncc(C2=C(COc3c(F)cc(CCC(=O)O)cc3F)CC(F)(F)CC2)s1 [Compound 554, 3-[4-[[5,5-difluoro-2-(2-methylthiazol-5-yl)cyclohexen-1-yl]methoxy]-3,5-difluoro-phenyl]Propanoic Acid] |
| 358 | 164 | Cc1cc(CCC(=O)O)ccc1OCC1=C(c2ccco2)CCC(F)(F)C1 [Compound 555, 3-[4-[[5,5-difluoro-2-(2-furyl)cyclohexen-1-yl]methoxy]-3-methyl-phenyl]Propanoic Acid] |
| 302 | 149 | Cc1c(CCC(=O)O)ccc(OCC2=C(c3cccs3)CCC(F)(F)C2)c1C [Compound 557, 3-[4-[[5,5-difluoro-2-(2-thienyl)cyclohexen-1-yl]methoxy]-2,3-dimethyl-phenyl]Propanoic Acid] |
